According to patent US6355785B1, “Guanosine-rich oligonucleotide integrase inhibitors” (Aronex Pharmaceuticals, Inc., priority 1993, dated 2002):
Read-outs that look alike come from different tables or passages of the source.

Assays:
Format in all cases: cell-based
[1] = tested on: HIV-1 strains (SKI, RF, DV, IIIB, ADP/141); test: microbe, parasite or virus in culture; conditions: Human immunodeficiency virus 1, IIIB
[2] = tested on: HIV-1 laboratory isolates; test: HIV-1 infection of PBMCs (p24); conditions: read-out: IC50 viral production
HIV-1 clinical isolates = test: microbe, parasite or virus in culture
HIV-1IIIB = test: Time of drug addition study, MT-4 cells (p24); conditions: 100-fold IC50, MOI 1, p24 at 29 hour

Cc1cn([C@H]2C[C@H](N=[N+]=[N-])[C@@H](CO)O2)c(=O)[nH]c1=O [AZT, 3′-azido-3′-deoxythymidine] gave an IC50 ([1]; CEM-SS, read-out: Antiviral Assay IC50 IIIB, HIV-1 IIIB, CEM-SS or MT4) of 2 nM, an IC50 ([1]; CEM-SS, read-out: Antiviral Assay IC50 RF, HIV-1 RF, CEM-SS or MT4) of 7 nM and an IC50 ([1]; CEM-SS, read-out: Antiviral Assay IC50 SKI, HIV-1 SKI, CEM-SS or MT4) of 22 nM. For the same molecule, the IC50 ([1]; CEM-SS, read-out: IC50 (cpe assay), RF (CEM-SS), MOI 0.01) was 10 nM, the IC50 ([1]; CEM-SS, read-out: IC50 (cpe assay), RF (CEM-SS), MOI 0.02) was 20 nM and the IC50 ([1]; CEM-SS, read-out: IC50 (cpe assay), RF (CEM-SS), MOI 0.04) was 70 nM. It also gave an IC50 ([1]; CEM-SS, read-out: IC50 (cpe assay), RF (CEM-SS), MOI 0.64) greater than 10000 nM, an IC50 ([1]; CEM-SS, read-out: IC50 (cpe assay), RF (CEM-SS), MOI 1.28) greater than 10000 nM and an IC50 ([1]; CEM-SS, read-out: IC50 virus production, HIV-1 IIIB, CEM-SS) of 2 ± 0.3 nM. For the same molecule, the IC50 ([1]; CEM-SS, read-out: IC50 virus production, HIV-1 RF, CEM-SS, MOI 0.01) was 7 nM, the IC50 ([1]; CEM-SS, read-out: IC50 virus production, HIV-1 SKI, CEM-SS, MOI 0.01) was 22 ± 0.1 nM and the IC90 ([1]; CEM-SS, read-out: IC90 (cpe assay), RF (CEM-SS), MOI 0.16) was greater than 10000 nM. It also gave an IC90 ([1]; CEM-SS, read-out: IC90 (cpe assay), RF (CEM-SS), MOI 0.32) greater than 10000 nM, an IC90 ([1]; CEM-SS, read-out: IC90 (cpe assay), RF (CEM-SS), MOI 0.64) greater than 10000 nM and an IC90 ([1]; CEM-SS, read-out: IC90 (cpe assay), RF (CEM-SS), MOI 1.28) greater than 10000 nM. The IC50 ([1]; SUP-T1, read-out: IC50 virus production, HIV-1 DV, SUP T1) was 30 ± 5 nM, the IC50 ([1]; SUP-T1, read-out: IC50 virus production, HIV-1 IIIB, SUP T1) was 30 ± 6 nM and the IC50 ([1]; read-out: IC50 (cpe assay)) was 37 nM. It also gave an IC50 ([1]; read-out: IC50 (cpe assay), IIIB (MT4), MOI 0.01) of 10 nM, an IC50 ([1]; read-out: IC50 virus production, HIV-1 IIIB, AA5) of less than 3 nM and an IC50 ([1]; read-out: IC50 virus production, HIV-1 IIIB, MT2) of 10 ± 4 nM. For the same molecule, the IC50 ([1]; read-out: IC50 virus production, HIV-1 RF, MT2) was 30 ± 5 nM, the IC90 ([1]; read-out: IC90 (cpe assay), IIIB (MT4), MOI 0.3) was 3300 nM and the IC50 ([2]; Human immunodeficiency virus 1, IIIB, PBMC, HIV-1 IIIB) was 3 ± 0.2 nM. For the same molecule, the IC50 ([2]; Human immunodeficiency virus 1, PBMC, HIV-1 JRCSF) was 2.5 ± 1 nM, the IC50 ([2]; Human immunodeficiency virus 1, PBMC, HIV-1 MN) was 53 ± 1 nM and the IC50 ([2]; Human immunodeficiency virus 1, PBMC, HIV-1 RF) was 272 ± 3 nM. For the same molecule, the IC50 (HIV-1 clinical isolates; Human immunodeficiency virus 1, read-out: IC50 values over the clinical isolates tested in PBLs, range over isolates) was 10 to 1650 nM, the IC50 (HIV-1 clinical isolates; Human immunodeficiency virus 1, read-out: IC50 viral production, PBLs, clinical isolate 942716) was 2 ± 3 nM and the IC50 (HIV-1 clinical isolates; Human immunodeficiency virus 1, read-out: IC50 viral production, PBLs, clinical isolate 942751) was 28 ± 2.5 nM. For the same molecule, the IC50 (HIV-1 clinical isolates; Human immunodeficiency virus 1, read-out: IC50 viral production, PBLs, clinical isolate BAKI (SI)) was 20 ± 6 nM, the IC50 (HIV-1 clinical isolates; Human immunodeficiency virus 1, read-out: IC50 viral production, PBLs, clinical isolate BLCH (NSI)) was 22 ± 0.8 nM and the IC50 (HIV-1 clinical isolates; Human immunodeficiency virus 1, read-out: IC50 viral production, PBLs, clinical isolate JOGA (NSI)) was greater than 1000 nM. For the same molecule, the IC50 (HIV-1 clinical isolates; Human immunodeficiency virus 1, read-out: IC50 viral production, PBLs, clinical isolate N. Amer. #1) was 10 ± 4 nM, the IC50 (HIV-1 clinical isolates; Human immunodeficiency virus 1, read-out: IC50 viral production, PBLs, clinical isolate N. Amer. #2) was 1650 ± 7 nM and the IC50 (HIV-1 clinical isolates; Human immunodeficiency virus 1, read-out: IC50 viral production, PBLs, clinical isolate ROJO (SI)) was 52 ± 0.4 nM. It also gave an IC50 (HIV-1 clinical isolates; Human immunodeficiency virus 1, read-out: IC50 viral production, PBLs, clinical isolate S. E. Asia) of 60 ± 5 nM, an IC50 (HIV-1 clinical isolates; Human immunodeficiency virus 1, read-out: IC50 viral production, PBLs, clinical isolate VIHU (NSI)) of 36 ± 0.7 nM and an IC50 (HIV-1 clinical isolates; Human immunodeficiency virus 1, read-out: IC50 viral production, PBLs, clinical isolate WEJO (SI)) of 17 ± 0.1 nM. For the same molecule, the IC50 (HIV-1 clinical isolates; Human immunodeficiency virus 1, read-out: IC50 viral production, PBLs, clinical isolate WOME (SI)) was 25 ± 0.3 nM and the “delay of drug addition post-infection at which inhibitory effect is lost” value (HIV-1IIIB) was 3 or 4 hours post-infection.
